Results: article PMC11050599, “Novel Tetracyclic Azaphenothiazines with the Quinoline Ring as New Anticancer and Antibacterial Derivatives of Chlorpromazine” (International Journal of Molecular Sciences, 2024)

Experiments:
HCT116 cells = experiment: Annexin V-FITC/PI apoptosis flow cytometry, HCT116; format: cell-based, human
PC3 (prostate cancer) = experiment: MTT assay, PC3 cells; format: cell-based, human
Outline: (§1)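 After a 72 h incubation of 1 × 10^4 cells per well with compound, absorbance from MTT reduction was converted to percent of the medium-only control.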

A549 (lung cancer) = experiment: MTT assay, A549 cells; format: cell-based, human
Outline: as §1

[1] = test system: HaCaT (immortalized human keratinocytes); experiment: MTT assay, HaCaT normal cells; format: cell-based; conditions: Homo sapiens, HaCaT; MTT, 72 h, normal cells; read-out: IC50 HaCaT (Table 3)
Outline: as §1

HCT116 (colon cancer) = experiment: MTT assay, HCT116 cells; format: cell-based, human
Outline: as §1

[2] = test system: MiaPaCa-2 (pancreas cancer); experiment: MTT assay, MiaPaCa-2 cells; format: cell-based, human
Outline: as §1

[3] = representative dot plot, Figure 4C, IC50, 72 h
[4] = SI = IC50 for normal cell line (HaCaT)/IC50 cancer cell line

- IC50 (PC3 (prostate cancer); Homo sapiens, PC-3, MTT, 72 h, read-out: IC50 PC3): 16.7 ± 1.8 µM
- IC50 (A549 (lung cancer); Homo sapiens, A549, MTT, 72 h, mean SD, read-out: IC50 A549): 16 ± 4.2 µM
- IC50 (HCT116 (colon cancer); Homo sapiens, HCT-116, MTT, 72 h, read-out: IC50 HCT116): 7.7 ± 1.2 µM
- IC50 ([2]; Homo sapiens, MIA PaCa-2, MTT, 72 h, read-out: IC50 MiaPaCa-2): 24.3 ± 3.5 µM
Structure (SMILES): CN1CCCCC1CCN1c2cc(Cl)ccc2Sc2cc3ccccc3nc21 (centres unmarked) [Compound 11, 8-Chloro-6-(2-(1-methylpiperidin-2-yl)ethyl)-quino[3,2-b]benzo[1,4]thiazine]
- cells in late apoptosis/necrosis, HCT116 (HCT116 cells; compound at IC50, 72 h): 15.64%
- HCT-116: Alive (HCT116 cells; [3]): 80.61%
- HCT-116: Early Apoptotic (HCT116 cells; [3]): 4.12%
- HCT-116: Necrotic (HCT116 cells; [3]): 9.25%
- HCT-116: Necrotic/Late Apoptotic (HCT116 cells; [3]): 6.03%
- SI PC3 (PC3 (prostate cancer); [4]): 0.7
- SI A549 (A549 (lung cancer); [4]): 1
- IC50 [1]: 12.7 ± 1.9 µM
- SI HCT116 (HCT116 (colon cancer); [4]): 1.6
- SI MiaPaCa-2 [2, 4]: 0.5
